Results: patent US20060148829A1, “Means for inducing differentiation of supernumerary hair cells and deiters' cells in the developing organ of corti” (priority 2002, published 2006)
Starred links: 1 amine or outer side, 2 acyl side, 3 side chain; linkers in the order of their positions; H or OH if unused. Positions of bridges follow the written chain, without caps; N, C: chain ends. Non-standard residues stand in square brackets, D forms with d. Residues, ends and D or L forms follow the SMILES beside them. Chains are numbered I, II in the order given. Actinocin(9to1) = Cc1c2oc3c(C)ccc(C(=O)[*:1])c3nc-2c(C(=O)[*:2])c(N)c1=O; NMeV = CN[C@H](C(=O)O)C(C)C; Sar = CNCC(=O)O

Columns and labels:
[1] = system: rat organ of Corti explants; assay: Induction of supernumerary hair cells (HCs) in cultured organ of Corti explants; settings: for Induction of supernumerary HCs (in words): E19 rat organ of Corti explants, 5 days in culture; for Concentration inducing maximum supernumerary HCs differentiation: isolated organs of Corti, lowest concentration inducing maximum effect, for inactive compounds highest concentration tested 100 :M
Excerpt: Time-pregnant Sprague-Dawley rats or neonates were killed by euthanasia on gestational days 17 (E17), E19, or on postnatal days 0 (day of birth=P0), P2 and P4 with CO2. Both cochleae were dissected free from the calvaria with watchmaker forceps and under a stereomicroscope. Each organ of Corti was freed from surrounding tissues and explanted intact onto the surface of a sterile membrane (Mllicellm, 12 mm, Millipore, Bedford, Mass., USA) in minimum essential medium (MEM; Gibco, Gent, Belgium) into a 24-well culture plate (Nunc). Cultures were incubated at 37° C. in a humidified atmosphere of 95% air and 5% CO2. Medium was renewed every 2 days.
Organs of Corti were dissected from E19 rats and maintained in culture. […] For each condition, the explants were fixed and the supernumerary zones were counted after myosin VIIa immunostaining.
Quantitative analysis of supernumerary HCs production was obtained by counting the number of HCs per length and surface of sensory epithelium regions from the medium turn as previously described (5). If supernumerary cells were actually produced, the number of cells per unit of length should increase while the number of cells per surface unit should remain at the same level. […] The total length of each organ of Corti explant was measured and the extent of the region with supernumerary HCs was expressed as percent of total length. These supernumerary regions were defined by the presence of more than four rows of HCs.

[2] = system: E19 explants of organ of Corti; assay: BrdU labelling of cell proliferation in organ of Corti explants; type: cell-based, rat
Description: Immunohistochemistry, immunocytochemistry and confocal microscopy were carried out as previously described (4;5). Whole-mount preparations or cryostat sections (10-20 :m) were fixed with either 4% paraformaldehyde (10 min. at 20° C.) or methanol (5 min. at −20° C.). Primary antibodies incubations were performed overnight at 4° C. Preparations were washed three times in PBS before incubating with a secondary antibody conjugated to alexa488, alexa568 or TRITC fluorophore for 1 hour at 20° C. Sequential double labeling experiments were done with a 4% paraformaldehyde fixation step in between each immunoreaction. Preparations were mounted on microscope slides and coverslipped with Fluoprep mounting medium (BioMérieux, Marcy l'Etoile, France) and imaged using a Bio-Rad MRC1024 laser scanning confocal microscope. To label cells in S phase in vitro, BrdU (10 :M, Sigma, USA) which is incorporated into replicating DNA, was added to the cultures for 2 or 5DIV prior staining.

[3] = system: E19 rat organ of Corti explants; assay: TUNEL labelling of apoptosis in organ of Corti explants; type: cell-based; settings: 10 :M, after 1, 2 or 5 DIV
Excerpt: The apoptosis in E19 rat organ of Corti explants was looked for by staining the specimens cultured for 1, 2 or 5DIV with the terminal deoxynudeotidyl transferase-mediated dUTP nick-end labelling (TUNEL) method using the ApopTag fluorescent detection kit (Oncor, Gaitherburg, Md.) as previously described (6).

[4] = system: mouse organs of Corti (Math1 genotypes); assay: Roscovitine-induced HCs in organs of Corti of wild type, Math1-null and heterozygote mice; type: cell-based; settings: 5DIV
Description: Math1 knockout mice were generated by replacing the Math1 open reading frame (ORF) with the selectable marker PGKhprt as previously described by Ben-Arie et al.(l). Math1^∃^gal/^∃^-gal knock-in mice were generated by replacing the Math1 ORF with a ∃-galactosidase (∃-gal) reporter gene so that ∃-gal is expressed in all cells that express Math1 (2).
Whole-mount lacZ staining was carried out on cultured E15.5 organ of Corti explants as previously described (2;3). After 5DIV, explants were fixed in 4% paraformaldehyde for 20 minutes, washed thoroughly in PBS and equilibrate in X-gal staining buffer (5 mM potassium ferricyanide, 5 mM potassium ferrocyanide, 0.02% NP40, and 0.01% sodium deoxycholate). Explants were stained overnight in X-gal buffer with X-gal (1 mg/ml) then post-fixed in 4% paraformaldehyde. Genotyping of tail DNA was performed using Southern analysis of EcoRI digested DNA and probes as previously described (1).

[5] = Administration to patients suffering of deafness; type: in vivo; settings: regularly administered
CDK1/cyclin B = settings: Knockaert et al, 2002b; cited from earlier work

For `CC[C@H](CO)Nc1nc(NCc2ccccc2)c2ncn(C(C)C)c2n1` [roscovitine], the “Developmental stage dependence of induction of supernumerary HCs” value ([1]; 10 :M, 5 days of culture, stages E17 to P4) was “culminated at E17, sightly decreased at E19 and disappeared at P0”, the “Toxicity for cells in the organ of Corti” value ([1]; 30 and 100 :M) was “toxic for all cells in the organ of Corti” and the “Time in culture for maximal effect on length of supernumerary zones” value ([1]; E19 rat explants, 10 :M) was 5 DIV. For the same compound, the “Supernumerary segments as percent of the total length of the explants” value ([1]; E19 rat explants, 10 :M, 5DIV, mean, S.D., n=4 independent experiments) was 52.9%, the “Time in culture for effect on length of supernumerary zones” value ([1]; E19 rat explants, 10 :M, significant effect) was 4 DIV and the “Induction of supernumerary HCs (in words)” value (shortened to “Induction … (in words)”) [1] was “higher number of supernumerary HCs and corresponding SCs”. For the same compound, the “Concentration inducing maximum supernumerary HCs differentiation” value [1] was 10 :M, the “Density of HCs per surface unit vs control explants” value ([1]; roscovitine-treated explants) was “remained identical to that of control explants” and the “Rate of proliferation of mesenchymal cells in connective tissue” value ([2]; E19 explants, BrdU) was “higher in the absence of roscovitine”. The “BrdU labelling of epithelial cells in the area of HCs and SCs” value ([2]; roscovitine-treated E19 explants, 10 :M BrdU, 2 or 5 DIV) was “No epithelial cells were labeled with BrdU”, the TUNEL positive nuclei [3] was “no TUNEL positive nuclei were identified” and the “Myosin VIIA positive supernumerary HCs, wild type mice” value ([4]; E15 or E18 wild type mice) was “myosin VIIA immunopositive supernumerary HCs, (FIG. 9A) were observed”. The “Supernumerary HCs, Math1 heterozygote mice” value ([4]; E15.5 Math1 +/beta-gal organs of Corti, 10 :M) was “supernumerary HCs were present”, the “Myosin VIIA staining, Math1-null mutant mice” value ([4]; E15.5 Math1-null cochlea) was “absent” and the “Clinical effect in patients suffering of deafness” value [5] was “An improvement of their troubles was observed”. The “Tolerability in patients suffering of deafness” value [5] was “without any drawbacks”.

With `Cc1c2oc3c(C)ccc(C(=O)N[C@@H]4C(=O)N[C@H](C(C)C)C(=O)N5CCC[C@H]5C(=O)N(C)CC(=O)N(C)[C@@H](C(C)C)C(=O)O[C@@H]4C)c3nc-2c(C(=O)N[C@@H]2C(=O)N[C@H](C(C)C)C(=O)N3CCC[C@H]3C(=O)N(C)CC(=O)N(C)[C@@H](C(C)C)C(=O)O[C@@H]2C)c(N)c1=O` [Actinomycin D, actinomycin D] (I: T[dV]P[Sar][NMeV] / II: T[dV]P[Sar][NMeV]; ester I:1-I:C, II:1-II:C; linker I:N-II:N via Actinocin(9to1)) the “Induction … (in words)” value [1] was “able to induce supernumerary HCs” and the “Concentration inducing maximum supernumerary HCs differentiation” value [1] was 0.0001 :M.

In the case of `O=C1Cc2c([nH]c3ccc([N+](=O)[O-])cc23)-c2ccccc2N1` [alsterpaullone], the “Induction … (in words)” value [1] is reported as “induced the appearance of supernumerary HCs” and the “Concentration inducing maximum supernumerary HCs differentiation” value [1] is reported as 5 :M.

In the case of `OC[C@H]1O[C@@H](n2cnc3cc(Cl)c(Cl)cc32)[C@H](O)[C@@H]1O` [DRB, 6-dichloro-1-beta-D-ribobenzimidazole], the “Induction … (in words)” value [1] is reported as “able to induce supernumerary HCs” and the “Concentration inducing maximum supernumerary HCs differentiation” value [1] is reported as 0.01 :M.

For `CC(C)[C@H](CO)Nc1nc(N(C)c2cc(N)cc(Cl)c2)c2ncn(C(C)C)c2n1` [6-methyl-aminopurvalanol, N6-methyl-aminopurvalanol], the “Induction … (in words)” value [1] was “no effect” and the “Concentration inducing maximum supernumerary HCs differentiation” value [1] was “no effect”.

For `Cn1cnc2nc(NCCO)nc(NCc3ccccc3)c21` [iso-olomoucine], the “Induction … (in words)” value [1] was “no effect” and the “Concentration inducing maximum supernumerary HCs differentiation” value [1] was “no effect”.

With indirubin-3′-monoxime the “Induction … (in words)” value [1] was “induced the appearance of supernumerary HCs” and the “Concentration inducing maximum supernumerary HCs differentiation” value [1] was 10 :M.

For `N#CC(=C(/N)Sc1ccccc1N)/C(C#N)=C(\N)Sc1ccccc1N` [U0126], the “Induction … (in words)” value [1] is listed as “did not induce supernumerary HCs”, the “Concentration inducing maximum supernumerary HCs differentiation” value [1] is listed as “no effect” and the “CDK1 inhibition (IC50)” value (CDK1/cyclin B) is listed as “no effect”.

For `CC(C)[C@H](CO)Nc1nc(Nc2cc(N)cc(Cl)c2)c2ncn(C(C)C)c2n1` [aminopurvalanol], the “Concentration inducing maximum supernumerary HCs differentiation” value [1] was 5 :M.

With `Cn1cnc2c(NCc3ccccc3)nc(NCCO)nc21` [olomoucine] the “Concentration inducing maximum supernumerary HCs differentiation” value [1] was 30 :M.

For `O=C1c2ccccc2-[n+]2ccc3c([nH]c4ccccc43)c21` [fascaplysin], the “Induction … (in words)” value [1] is listed as “no effect”, the “Concentration inducing maximum supernumerary HCs differentiation” value [1] is listed as “no effect” and the “CDK1 inhibition (IC50)” value (CDK1/cyclin B) is listed as “no effect”.
